Here are results for 3 compounds from paper PMC8587863, “Discovery of Novel Delta Opioid Receptor (DOR) Inverse Agonist and Irreversible (Non-Competitive) Antagonists” (Molecules, 2021).

What is called EC50 is the concentration that produces a half-maximal response. Usually Ki stands for the equilibrium dissociation constant of an inhibitor or competing ligand from its target.

Assay [1] has as its target T1, human DOR (delta opioid receptor) (Homo sapiens, UniProt P41143).
T1 construct: gene OPRD1; full-length receptor expressed in CHO-K1 cells
Put plainly: […]-GTPgammaS coupling, membranes. In kind it is biochemical. The following applies: antagonist mode against SNC80 curve; 30 °C, 1 h, 40 uM GDP; proposed covalent / irreversible.

The target of assay [2] is T1, human DOR (delta opioid receptor). As to the kind of experiment: cAMP accumulation, live DOR-CHO cells. The format is cell-based.
For assay [3] the target is unchanged. As to the kind of experiment: competition radioligand binding, 3H-diprenorphine, membranes.
Assay [4] concerns the target T2, human mu opioid receptor (MOR) (Homo sapiens, UniProt P35372).
T2 construct: gene OPRM1; full-length receptor expressed in CHO cells; membranes
The assay is described as above. To be noted: room temperature, 1 h, one-site fit; unreliable.

Assay [5] deals with T3, human kappa opioid receptor (KOR) (Homo sapiens, UniProt P41145).
T3 construct: gene OPRK1; full-length receptor expressed in CHO cells; membranes
The description is as above.

In the case of `Oc1ccc2c3c1O[C@H]1c4[nH]c5ccc(/C=C/c6ccccn6)cc5c4C[C@@]4(O)[C@@H](C2)N(CC2CC2)CC[C@]314` [SRI-9342, (4bS,8R,8aS,14bR)-7-(Cyclopropylmethyl)-11-((E)-2-(pyridin-2-yl)vinyl)-5,6,7,8,14,14b-hexahydro-4,8-methanobenzofuro [2,3-a]pyrido[4,3-b]carbazole-1,8a(9H)-diol], in assay [1], the “% SNC80 efficacy (EMAX) at 1 nM” value came to 84%.
In assay [2], `O=C(C1CC1)N1CC[C@]23c4c5ccc(O)c4O[C@H]2c2[nH]c4ccccc4c2C[C@@]3(O)[C@H]1C5` [SYK-623, Cyclopropyl((4bS,8R,8aS,14bR)-1,8a-dihydroxy-5,6,8a,9,14,14b-hexahydro-4,8-methanobenzofuro[2,3−a]pyrido [4,3−b]carbazol-7(8H)-yl)methanone] yielded a concentration for a half-maximal effect (EC50) of 265 nM. The inhibition constant (Ki) in assay [3] turned out to be 11 ± 1 nM; in assay [5], 2000 ± 290 nM. In assay [4], the KI was > 3,333 nM.
In the same order, the values of `O=C(C1CC1)N1CC[C@]23c4c5ccc(O)c4O[C@H]2c2ncc(-c4ccc(Cl)cc4)cc2C[C@@]3(O)[C@H]1C5` [SRI-45128, ((4bS,8R,8aS,13bR)-11-(4-Chlorophenyl)-1,8a-dihydroxy-5,6,8,8a,9,13b-hexahydro-7H-4,8-methanobenzofuro[3,2-h]pyrido[3,4-g]quinolin-7-yl)(cyclopropyl)methanone] are 770 nM, 24 ± 2 nM, 2500 ± 510 nM and > 3,333 nM.
